EC50 and IC50 data for nine molecules are collected here from patent US20250215014A1, “KINASE INHIBITORS, PREPARATION METHODS AND USES THEREOF” (InventisBio Co., Ltd., priority 2022, published 2025).

Experiment [1] concerns PBMC. Kind of experiment: Human PBMC IL-2 Assay. Format: cell-based. The following applies: anti-CD3/CD28 antibody, IL-2 level. The procedure:
PBMC (frozen) obtained from health donor were thawed in RPMI-1640 medium with 10% o FBS, incubated for 4 h at 37° C. In a 96-well plate, 200,000 PBMC cells in 160 uL were added to each assay well. Ten microliter compound solution (10 uM to 0.6 nM, 8 points with 4-fold dilution) were added to cells in each well and incubated for 60 minutes at 37° C. Then 30 uL anti-CD3/CD28 antibody (Catalog #10991, Stemcell) were added to cells and incubated overnight at 37° C. After the incubation, 16 uL supernatants were transferred into a new 384-well white assay plate for cytokine analysis. IL-2 level was quantified using Human IL-2 kit (Catalog #62HIL02PEG, Cisbio) as described in the manufacturer manual.
Activation at […] activity (EC50) was calculated with the equation: […]
(§1) X is log of compound concentration, Y is the IL-2 concentration, increasing as X increases.

For experiment [2], the target named is DGKa (Homo sapiens (Human), UniProt P23743). Nature of the experiment: DGK ADP-Glo Kinase Assay (DGKa). The experiment is classed as biochemical. The following applies: 10 nM DGKa, 15 uM ATP. The procedure: (§2) Luminescence was recorded using an Tecan SPARK microplate reader.
Background: ADP-Glo first removes unused ATP, then detects ADP through luciferase.

The target in experiment [3] is DGKz (Homo sapiens (Human), UniProt Q13574). Nature of the experiment: DGK ADP-Glo Kinase Assay (DGKz). The experiment is classed as biochemical. The following applies: 5 nM DGKz, 15 uM ATP. The method, then:
as §2

Experiment [4] relates to Jurkat cells. Kind of experiment: Jurkat IL-2 Assay. The following applies: Homo sapiens, anti-CD3/CD28 antibody, IL-2 level. Format: cell-based. The procedure:
Jurkat cells (ATCC) were cultured in RPMI-1640 medium supplemented with 10% FBS. In a 96-well plate, 250,000 cells in 130 uL were added to each assay well. Ten microliter compound solution (5 uM to 2.3 nM, 8 points with 3-fold dilution) were added to cells in each well and incubated for 60 minutes at 37° C. Then 10 uL anti-CD3/CD28 antibody (Catalog #10991, Stemcell) were added and incubated overnight at 37° C. After the incubation, 16 uL supernatants were transferred into a new 384-well white assay plate for cytokine analysis. IL-2 was quantified using Human IL-2 kit (Catalog #62HIL02PEG, Cisbio) as described in the manufacturer manual.
as §1

Where only a bound is given, the exact number is not on record here.

DGKz, sequence (Q13574 whole entry): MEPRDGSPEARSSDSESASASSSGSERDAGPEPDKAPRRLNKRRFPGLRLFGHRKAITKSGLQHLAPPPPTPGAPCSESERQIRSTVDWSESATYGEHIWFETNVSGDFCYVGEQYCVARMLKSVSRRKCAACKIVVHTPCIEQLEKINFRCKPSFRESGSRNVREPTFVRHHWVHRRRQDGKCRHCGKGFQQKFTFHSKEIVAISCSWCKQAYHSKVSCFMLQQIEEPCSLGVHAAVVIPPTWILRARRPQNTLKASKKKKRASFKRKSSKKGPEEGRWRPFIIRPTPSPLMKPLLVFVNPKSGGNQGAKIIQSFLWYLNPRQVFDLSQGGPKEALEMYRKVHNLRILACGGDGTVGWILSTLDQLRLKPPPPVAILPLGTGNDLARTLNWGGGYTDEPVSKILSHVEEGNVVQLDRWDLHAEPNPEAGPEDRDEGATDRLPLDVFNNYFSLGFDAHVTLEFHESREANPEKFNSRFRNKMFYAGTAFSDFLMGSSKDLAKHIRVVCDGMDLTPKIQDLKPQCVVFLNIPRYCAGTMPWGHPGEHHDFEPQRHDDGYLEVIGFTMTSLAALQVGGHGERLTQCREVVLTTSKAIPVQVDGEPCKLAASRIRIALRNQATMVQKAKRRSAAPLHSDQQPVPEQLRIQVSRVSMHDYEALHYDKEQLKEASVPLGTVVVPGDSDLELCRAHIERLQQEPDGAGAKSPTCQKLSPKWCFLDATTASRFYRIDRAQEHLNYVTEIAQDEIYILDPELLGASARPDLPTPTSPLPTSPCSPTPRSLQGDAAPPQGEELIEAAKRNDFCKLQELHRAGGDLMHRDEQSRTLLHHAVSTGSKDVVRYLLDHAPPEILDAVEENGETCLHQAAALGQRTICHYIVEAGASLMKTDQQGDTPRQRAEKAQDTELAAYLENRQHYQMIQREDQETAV
DGKa, sequence (P23743 whole entry): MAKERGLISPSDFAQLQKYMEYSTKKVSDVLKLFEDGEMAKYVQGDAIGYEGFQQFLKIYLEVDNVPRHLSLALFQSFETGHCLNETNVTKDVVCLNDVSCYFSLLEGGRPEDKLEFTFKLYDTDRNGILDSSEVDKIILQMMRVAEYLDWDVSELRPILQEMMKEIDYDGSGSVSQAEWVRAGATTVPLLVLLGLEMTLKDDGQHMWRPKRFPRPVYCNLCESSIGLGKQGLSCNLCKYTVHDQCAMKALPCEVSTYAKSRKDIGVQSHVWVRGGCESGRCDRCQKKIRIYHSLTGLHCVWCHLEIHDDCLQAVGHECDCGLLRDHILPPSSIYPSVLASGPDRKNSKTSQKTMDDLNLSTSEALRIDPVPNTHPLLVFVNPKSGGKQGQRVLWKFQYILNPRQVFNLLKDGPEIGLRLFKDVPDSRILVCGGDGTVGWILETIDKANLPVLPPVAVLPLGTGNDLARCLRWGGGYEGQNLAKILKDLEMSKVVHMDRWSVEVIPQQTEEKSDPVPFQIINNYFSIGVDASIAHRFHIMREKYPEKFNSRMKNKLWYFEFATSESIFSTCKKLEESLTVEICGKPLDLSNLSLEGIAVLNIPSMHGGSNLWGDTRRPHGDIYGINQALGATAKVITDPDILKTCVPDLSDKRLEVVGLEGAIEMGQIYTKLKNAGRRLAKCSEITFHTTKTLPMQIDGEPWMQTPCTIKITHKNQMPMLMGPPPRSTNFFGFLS

On to `Cc1ccc2oc(C3(C)CCN(c4c(C#N)c(=O)n(C)c5ccc(C#N)nc45)CC3)nc2c1` [Compound 7], for which the EC50 (as a rule, the concentration giving half of the maximal effect) in experiment [1] is under 500 nM.

`Cn1c(=O)nc(N2CCC3(CC2)CC(c2ccccc2C(F)(F)F)=NO3)c2nc(C#N)ccc21` [Compound 48] showed an EC50 in experiment [1] of over 1000 nM.

For `CC[C@H]1C[C@@H](Oc2ccc(OC(F)(F)F)cc2)CCN1c1nc(=O)n(C)c2ccc(C#N)nc12` [Compound 17], the IC50 (in general, the concentration needed to halve the response being measured) in experiment [2] was under 100 nM; in experiment [3], 100 to 1000 nM. Also, in experiment [1], the EC50 was under 500 nM.

In the case of `C[C@H]1CC2(CCN1c1nc(=O)n(C)c3ccc(C#N)nc13)CC(c1ccc(OC(F)(F)F)cc1)=NO2` (stereo partly shown) [Compound 50], the EC50 in experiment [4] is under 500 nM.

In the case of `CC[C@H]1CN([C@@H]2CCCCc3cc(C(F)(F)F)ccc32)[C@H](CC)CN1c1nc(=O)n(C)c2ccc(C#N)nc12` [Compound 45], the IC50 in experiment [2] was 100 to 1000 nM; in experiment [3], under 100 nM. This molecule also registered an EC50 in experiment [4] of 500 to 1000 nM.

In turn, `Cn1c(=O)nc(N2CCC(Oc3ccc(OC(F)(F)F)cc3)CC2)c2c1ccc1nncn12` [Compound 21] registered an EC50 in experiment [4] of over 1000 nM.

As for `Cn1c(=O)c(C(N)=O)c(N2CCC3(CCN(c4ccc(OC(F)(F)F)cc4)C3)CC2)c2nc(C#N)ccc21` [Compound 6], the IC50 in experiment [2] and in experiment [3] was 100 to 1000 nM each time. Also, in experiment [1], the EC50 was over 1000 nM.

For the molecule `CC[C@@H]1C[C@@H](Oc2ccc(OC(F)(F)F)cc2)CCN1c1nc(=O)n(C)c2ccc(C#N)nc12` (stereo in doubt) [Compound 19], the figures for the half-inhibitory concentration (IC50) in experiment [2] and in experiment [3] were over 1000 nM and under 100 nM, respectively. The EC50 in experiment [1] was 500 to 1000 nM.

As for `Cn1c(=O)nc(N2CCC(Oc3ccc(OC(F)(F)F)cc3)CC2)c2nc(C#N)ccc21` [Compound 5], the IC50 in experiment [2] and in experiment [3] was 100 to 1000 nM throughout. In experiment [1], the EC50 lay within 500 to 1000 nM.
